# Reference: patent US8871681B2, “Herbicidal compositions comprising 4-amino-3-chloro-5-fluoro-6-(4-chloro-2-fluoro-3-methoxyphenyl) pyridine-2-carboxylic acid or a derivative thereof and certain sulfonylureas” (Dow AgroSciences LLC, priority 2012, dated 2014)
# Legend:
# [1] = system: CIRAR (Cirsium arvense, Canada thistle); assay: Post-emergence foliar-applied weed control in cereal crops, greenhouse (Example III); format: in vivo, Cirsium arvense (L.) Scop.; details: Cirsium arvense, post-emergence, foliar-applied, after 20-22 days, read-out: Weed Control CIRAR Obs
# Method: (§1) Seeds of the desired test plant species were planted in Sun Gro MetroMix® 306 planting mixture, which typically has a pH of 6.0 to 6.8 and an organic matter content of about 30 percent, in plastic pots with a surface area of 103.2 square centimeters (cm^2). When required to ensure good germination and healthy plants, a fungicide treatment and/or other chemical or physical treatment was applied. The plants were grown for 7-36 days in a greenhouse with an approximate 14 hour photoperiod which was maintained at about 18° C. during the day and 17° C. during the night. Nutrients and water were added on a regular basis and supplemental lighting was provided with overhead metal halide 1000-Watt lamps as necessary. The plants were employed for testing when they reached the second or third true leaf stage.
# (§2) Treatments consisted of the benzyl ester of 4-amino-3-chloro-5-fluoro-6-(4-chloro-2-fluoro-3-methoxy-phenyl)pyridine-2-carboxylic acid (Compound A), formulated as an SC (suspension concentrate), and a second cereal herbicide alone and in combination.
# (§3) Measured aliquot of benzyl ester of 4-amino-3-chloro-5-fluoro-6-(4-chloro-2-fluoro-3-methoxy-phenyl)pyridine-2-carboxylic acid (Compound A) was placed in 25 milliliter (mL) glass vials and diluted in a volume of 1.25% (v/v) Agri-dex crop oil concentrated to obtain stock solutions. Compound requirements are based upon a 12 mL application volume at a rate of 187 liters per hectare (L/ha). Spray solutions of the second cereal herbicide and experimental compound mixtures were prepared by adding the stock solutions to the appropriate amount of dilution solution to form 12 mL spray solution with active ingredients in two- and three-way combinations. Formulated compounds were applied to the plant material with an overhead Mandel track sprayer equipped with an 8002E nozzle calibrated to deliver 187 L/ha over an application area of 0.503 square meters (m^2) at a spray height of 18 inches (46 cm) above average plant canopy. Control plants were sprayed in the same manner with the solvent blank.
# (§4) The treated plants and control plants were placed in a greenhouse as described above and watered by sub-irrigation to prevent wash-off of the test compounds. After 20-22 days, the condition of the test plants as compared with that of the control plants was determined visually and scored on a scale of 0 to 100 percent where 0 corresponds to no injury and 100 corresponds to complete kill.
# (§5) Colby's equation was used to determine the herbicidal effects expected from the mixtures (Colby, S. R. 1967. Calculation of the synergistic and antagonistic response of herbicide combinations. Weeds 15:20-22.).
# (§6) The following equation was used to calculate the expected activity of mixtures containing two active ingredients, A and B: Expected=A+B−(A×B/100)
# [2] = system: VIOTR (Viola tricolor, wild pansy); assay: as above; format: in vivo, Viola tricolor (L.)
# Method: as §1, §2, §3, §4, §5, §6
# [3] = system: VERPE (Veronica persica, bird's-eye speedwell); assay: as above; format: in vivo, Veronica persica Poir.; details: Table 57, after 20-22 days, 8.75 gai/ha Sulfosulfuron alone
# Method: as §1, §2, §3, §4, §5, §6
# [4] = system: MATCH (Chamomilla chamomilla, scented mayweed); assay: as above; format: in vivo, Chamomilla chamomilla (L.) Rydb.
# Method: as §1, §2, §3, §4, §5, §6
# [5] = system: LAMPU (Lamium purpureum, purple deadnettle); assay: as above; format: in vivo, Lamium purpureum (L.); details: Table 57, after 20-22 days, 8.75 gai/ha Sulfosulfuron alone
# Method: as §1, §2, §3, §4, §5, §6
# [6] = system: POROL (Portulaca oleracea, portulaca); assay: Post-emergence herbicidal activity of mixtures in forage crops, greenhouse (Example IV); format: in vivo, Portulaca oleracea L.; details: Table 58 (forage); foliar-applied; after approximately 21 days; 1.1 gai/ha alone
# Method: as §1, with “Seeds or root cuttings” for “Seeds”, “126.6” for “103.2”, “14-60” for “7-36”, “approximately 28°” for “about 18°”, “24°” for “17°”, “BBCH13 to BBCH23” for “second or third true”
# (§7) Treatments consisted of the benzyl ester of 4-amino-3-chloro-5-fluoro-6-(4-chloro-2-fluoro-3-methoxy-phenyl)pyridine-2-carboxylic acid (Compound A), formulated as a SC, and a second herbicide alone and in combination.
# (§8) A measured aliquot of Compound A was placed in 25 milliliter (mL) glass vial and diluted in a volume of 1.25% (v/v) Agri-dex crop oil concentrated to obtain stock solutions. Compound requirements are based upon a 12 mL application volume at a rate of 187 liters per hectare (L/ha). Spray solutions of the second cereal herbicide and experimental compound mixtures were prepared by adding the stock solutions to the appropriate amount of dilution solution to form 12 mL spray solution with active ingredients in two- and three-way combinations. […]
# (§9) The treated plants and control plants were placed in a greenhouse as described above and watered by sub-irrigation to prevent wash-off of the test compounds. After approximately 21 days, the condition of the test plants, as compared with that of the control plants, was determined visually and scored on a scale of 0 to 100 percent where 0 corresponds to no injury and 100 corresponds to complete kill. […]
# [7] = system: SIDSP (Sida spinosa, prickly sida); assay: as above; format: in vivo, Sida spinosa L.; details: Table 58 (forage); foliar-applied; after approximately 21 days; 1.1 gai/ha alone
# Method: as §1, with “Seeds or root cuttings” for “Seeds”, “126.6” for “103.2”, “14-60” for “7-36”, “approximately 28°” for “about 18°”, “24°” for “17°”, “BBCH13 to BBCH23” for “second or third true”
# as §7, §8, §9
# [8] = system: CASOB (Cassia obtusifolia, sicklepod); assay: as above; format: in vivo, Cassia obtusifolia L.; details: Table 58 (forage); foliar-applied; after approximately 21 days; 1.1 gai/ha alone
# Method: as §1, with “Seeds or root cuttings” for “Seeds”, “126.6” for “103.2”, “14-60” for “7-36”, “approximately 28°” for “about 18°”, “24°” for “17°”, “BBCH13 to BBCH23” for “second or third true”
# as §7, §8, §9
# [9] = system: IPOHE (Ipomoea hederacea, ivyleaf morningglory); assay: Postemergence foliar-applied weed control, direct seeded rice, greenhouse (Example I); format: in vivo, Ipomoea hederacea Jacq.; details: 21 DAA
# Source text: Seeds or nutlets of the desired test plant species were planted in a soil matrix prepared by mixing a loam or sandy loam soil (e.g., 28.6 percent silt, 18.8 percent clay, and 52.6 percent sand, with a pH of about 5.8 and an organic matter content of about 1.8 percent) and calcareous grit in an 80 to 20 ratio. The soil matrix was contained in plastic pots with a volume of 1 quart and a surface area of 83.6 square centimeters (cm^2). When required to ensure good germination and healthy plants, a fungicide treatment and/or other chemical or physical treatment was applied. The plants were grown for 8-22 days in a greenhouse with an approximate 14 h photoperiod which was maintained at about 29° C. during the day and 26° C. during the night. Nutrients (Peters Excel® 15-5-15 5-Ca 2-Mg and iron chelate) were applied in the irrigation solution as needed and water was added on a regular basis. Supplemental lighting was provided with overhead metal halide 1000-Watt lamps as necessary. The plants were employed for testing when they reached the first through fourth true leaf stage.
# Treatments consisted of the acid or esters of 4-amino-3-chloro-5-fluoro-6-(4-chloro-2-fluoro-3-methoxy-phenyl)pyridine-2-carboxylic acid (Compound A), each formulated as an SC, and various herbicidal components alone and in combination. Forms of compound A were applied on an acid equivalent basis.
# Other herbicidal components were applied on an active ingredient basis and included acetolactate synthase (ALS)-inhibiting herbicides (sulfonylurea chemical class) azimsulfuron formulated as Gulliver®, bensulfuron-methyl formulated as Londax® 60DF, cyclosulfamuron (technical material), ethoxysulfuron formulated as Sunrice® 15 WDG, flazasulfuron formulated as Katana®, flucetosulfuron formulated as Sukedachi® 1KG G, foramsulfuron formulated as Option®, imazosulfuron formulated as Brazzos® WG, iodosulfuron-methyl-sodium formulated as Hussar®, metsulfuron-methyl formulated as Lorate®, nicosulfuron formulated as Accent®, orthosulfamuron formulated as Strada® WG, primisulfuron-methyl (technical material), propyrisulfuron formulated as Zeta One®, rimsulfuron formulated as Matrix® WG, sulfometuron-methyl formulated as Oust®, and trifloxysulfuron-sodium formulated as Monument® 75WG.
# Treatment requirements were calculated based upon the rates being tested, the concentration of active ingredient or acid equivalent in the formulation, and a 12 mL application volume at a rate of 187 L/ha.
# For treatments comprised of formulated compounds, measured amounts of compounds were placed individually in 25 mL glass vials and diluted in a volume of 1.25% (v/v) Agri-Dex® crop oil concentrated to obtain 12× stock solutions. […] Application solutions were prepared by adding an appropriate amount of each stock solution (e.g., 1 mL) and diluted to the appropriate final concentrations with the addition of 10 mL of an aqueous mixture of 1.25% (v/v) crop oil concentrate so that the final spray solutions contained 1.25+/−0.05% (v/v) Agrcrop oil concentrate.
# For treatments comprised of formulated and technical compounds, weighed amounts of the technical materials were placed individually in 25 mL glass vials and dissolved in a volume of 97:3 v/v acetone/DMSO to obtain 12× stock solutions, and measured amounts of the formulated compounds were placed individually in 25 mL glass vials and diluted in a volume of 1.25% (v/v) crop oil concentrate to obtain 12× stock solutions. […] Application solutions were prepared by adding an appropriate amount of each stock solution (e.g., 1 mL) and diluted to the appropriate final concentrations with the addition of an appropriate amount of an aqueous mixture of 1.5% (v/v) crop oil concentrate so that the final spray solutions contained 1.25% (v/v) crop oil concentrate. […]
# [10] = Table 54, after 20-22 days, 2.5 gai/ha alone
smiles,measurement,setting,value
COc1nc(C)nc(NC(=O)NS(=O)(=O)c2ccccc2Cl)n1 [Chlorsulfuron],pest or weed control at 2.2 g/ha,"[1]; Table 52, 2.2 gai/ha alone",78%
same,Weed Control VIOTR Obs,"[2]; Table 52, after 20-22 days, 2.2 gai/ha alone",70%
CCS(=O)(=O)c1nc2ccccn2c1S(=O)(=O)NC(=O)Nc1nc(OC)cc(OC)n1 [Sulfosulfuron],Weed Control VERPE Obs,[3],35%
same,Weed Control MATCH Obs,"[4]; Table 57, after 20-22 days, 8.75 gai/ha Sulfosulfuron alone",95%
same,pest or weed control at 8.75 g/ha,"[1]; Table 57, 8.75 gai/ha Sulfosulfuron alone",70%
same,Weed Control LAMPU Obs,[5],5%
COC(=O)c1ccccc1S(=O)(=O)NC(=O)Nc1nc(C)nc(OC)n1 [Metsulfuron ME],Weed Control POROL Obs,[6],80%
same,Weed Control SIDSP Obs,[7],52%
same,Weed Control CASOB Obs,[8],8%
"COC(=O)c1ccc(I)cc1S(=O)(=O)[N-]C(=O)Nc1nc(C)nc(OC)n1.[Na+] [Iodosulfuron-methyl sodium, methyl 4-iodo-2-[[[[(4-methoxy-6-methyl-1,3,5-triazin-2-yl)amino]carbonyl]amino]sulfonyl]benzoate, sodium salt, reference compound]",Visual Weed Control (%) Obs,[9]; 2.5 gai/ha,90%
same,Visual Weed Control (%) Obs,[9]; 5 gai/ha,95%
same,Weed Control MATCH Obs,[4]; [10],94%
same,pest or weed control at 2.5 g/ha,"[1]; Table 54, 2.5 gai/ha alone",60%
same,Weed Control VIOTR Obs,[2]; [10],82%
